“Also recorded” adds a separate entry of the source.

The test system of assay [1] is Akt protein. Nature of the assay: Western blot of Akt activity with C2-Akt fusion protein and PI3K co-treated with PTEN or SHIP2. The note with it: cells with C2-Akt fusion protein and PI3K vectors co-treated with PTEN or SHIP2. The format is cell-based. On the procedure: Particularly, the experiment was performed by the same manner under the same conditions as described in Example 2 except that the vector expressing the C2-Akt fusion protein and the vector expressing PI3K protein were co-treated with PTEN or SHIP2 and the antibody against Akt (Cell Signaling Technology, USA), Akt(T308) (Cell Signaling Technology, USA), Akt(S473) (Cell Signaling Technology, USA), PI3K (Cell Signaling Technology, USA), PTEN (Cell Signaling Technology, USA) or SHIP2 (Upstate Biotechnology, USA) protein was used as the primary antibody.
(A western blot detects proteins with antibodies after separation by electrophoresis.)

Assay [2] can be described thus: ITC of phospholipid liposomes with calcium. It is filed as binding. The note with it: liposome with POPC 80:20, 25° C., unlike POPS. The procedure:
Particularly, a protein solution was prepared by suspending a protein in 10 mM HEPES (pH 7.0). Phospholipid related ligand was titrated in the protein solution at 25° C. by using iTC200 micro calorimetry system (MicroCal Inc., USA), and the generated graph was corrected using Origin software (MicroCal Inc., USA). At this time, the phospholipid related ligand was prepared in the form of liposome by mixing POPC (1-palmitoyl-2-oleoyl-sn-glycero-3-phosphocholin) chloroform solution and POPS (1-palmitoyl-2-oleoyl-sn-glycero-3-phosphoserine), PI(3,4)P2 (1,2-dipalmotoyl-sn-glycero-3-phosphatidylinositol-3,4-[…]), PI(4,5)P2 (1,2-dipalmotoyl-sn-glycero-3-phosphatidylinositol-4,5-trisphosphate) or PI(3,4,5)P3 (1,2-dipalmotoyl-sn-glycero-3-phosphatidylinositol-3,4,5-trisphosphate) at the molar ratio of 80:20. The organic solvent was eliminated. The organic solvent was removed and a single layer lamellar was produced in HEPES (pH 7.0) using phospholipids.

The subject of assay [3] is Akt protein. Put plainly: Western blotting of Akt protein phosphorylation in insulin-treated HepG2 cells. It is filed as cell-based, human. The following applies: PMA 0, 10, 50 or 100 nM or ionomycin 0, 1, 5, 10 or 20 μM, 100 nM insulin, dose-dependent. The procedure:
First, male C57BL/6 mice at 8 weeks were divided into the fasted group wherein the mice were fasted for 16 hours and the refed group wherein the mice were fasted for 16 hours and then fed for 4 hours. Each group was sub-divided into the high fat diet group (HFD) and the normal diet group (chow). The liver cells were extracted from the raised mice by the same manner and under the same conditions as described in Example 1. The extracted liver cells were lysed in a lysis buffer containing phosphatase (Sigma-Aldrich, USA) and protease inhibitor (Sigma-Aldrich, USA). Proteins extracted from 2 to 3 mg of the liver tissue were homogenized by using a tissue homogenizer (TissuLyser, Qiagen, USA) for 1.5 minutes at a frequency of 1/30 sec. The homogenized lysate was centrifuged at 12,000 rpm for 15 minutes and the supernatant was obtained. The amount of the extracted protein was quantified by using a protein assay kit (Bio-Rad Laboratories, USA), and at this time BSA was used as a standard sample. 3 mg of the protein was mixed with 6× loading buffer, followed by electrophoresis using 10% SDS-PAGE gel. The electrophoresed protein was transferred onto a polyvinylidene fluoride (PVDF) membrane by using a transfer buffer at 4° C. with 120 V for 1.5 hours. The PVDF membrane on which the protein was transferred was pretreated with a blocking buffer prepared by mixing 5% skim milk with TBS buffer (TBS-T, pH 7.6) supplemented with Tween 20 for 30 minutes, and the membrane was washed with TBS-T. The washed membrane was added with the antibody against Akt (Cell Signaling Technology, USA), Akt(T308) (Cell Signaling Technology, USA), Akt(S473) (Cell Signaling Technology, USA), FOXO3A (Cell Signaling Technology, USA), FOXO3A(S253) (Cell Signaling Technology, USA), GSK-3β (Cell Signaling Technology, USA) or GSK-3β(S9) (Cell Signaling Technology, USA) protein as a primary antibody, followed by reaction at 4° C. for 12 hours. At this time, the antibody against actin (Santa Cruz Biotechnology, USA) protein was used for the control group. Upon completion of the reaction, the secondary antibody corresponding to the primary antibody was added thereto, followed by reaction at room temperature for 30 minutes. The PVDF membrane was washed with TBS-T buffer three times. The washed PVDF membrane was added with ECL solution (Thermo Scientific, USA), followed by image observation.
To investigate the changes in insulin sensitivity when insulin was added to the fatty liver cell model constructed in vitro, the phosphorylations of those proteins that were involved in insulin signal transduction were examined. PA was added to the human HepG2 cells prepared in Example 3, followed by reaction for 24 hours. […]

Assay [4] has as its target T1, PH domain of Akt protein (Homo sapiens, UniProt P31749).
T1 construct: His6 (C); made in house; host or cells: E. coli BL21 (DE3), pET28a vector
Put plainly: Protein-lipid binding assay (PIP-strips) with PH domain of Akt protein. On the procedure:
E. coli BL21 (DE3) cells were transfected with a vector containing the PH domain of Akt protein, and the cells were cultured in 50 Ml of LB medium supplemented with 50 μg/Ml of kanamycin. The culture was performed at 37° C. for 8 hours. Upon completion of the culture, the cells were transferred into a 25° C. agitation incubator. The cells were cultured until OD600 reached 0.6 to 1.0, and then 1 mM IPTG (isopropyl-β-D-1-thiogalactopyranoside) was added thereto. 18 hours after the addition of IPTG, centrifugation was performed at 7,000×g at 4° C. for 10 minutes to obtain cells. Sonication equilibrium buffer (150 mM NaCl, 50 mM Tris-HCl, pH 7.6) was added to the obtained cells. The cells added with the sonication equilibrium buffer were lysed by sonication. The PH domain of Akt protein was purified from the cell lysate by […] using nickel-nitrilotriacetic acid and HiLoad Superdex-200 column (GE Healthcare life science, USA). The purity of the purified protein was examined by SDS-PAGE (sodium dodecyl sulfate polyacrylamide gel electrophoresis).
Particularly, the analysis was performed by using membrane-immobilized lipid strips (PIP-strips, Echelon Biosciences Inc., USA). […]

Assay [5] concerns CHO cells. Put plainly: Migration of mCherry-tagged PH or C2 domain to the cell membrane, fluorescence microscopy. It is filed as cell-based. An excerpt:
First, the PH domain of Akt1 protein or C2 domain of PKCβ protein was obtained by PCR using the primers consisting of the nucleotide sequences represented by […]. The obtained PCR product was cloned in pmCherry-C1 vector (Takara Clontech, Japan) by the conventional cloning method. CHO cells were transfected with the prepared vector by using lipofectamine according to the manufacturer's protocol. The transfected cells were selected by using blastidicin. Then, mCherry positive cells were confirmed by flow cytometry.
PMA at the concentration of 100 nM, ionomycin at the concentration of 10 μM or insulin at the concentration of 100 nM was added to the cells expressing the PH domain of Akt1 protein or the C2 domain of PKCβ protein and the location of the expressed protein was confirmed by fluorescence microscopy.

Consider “PTEN: phosphatase and tensin homolog, co-treated”, for which the Akt protein activity result in assay [1] is “reduced”.

As for `CCCCCCCCCCCCCCCC(=O)OCC(COP(=O)(O)OC1C(O)C(O)C(OP(=O)(O)O)C(OP(=O)(O)O)C1O)OC(=O)CCCCCCCCCCCCCCC` (stereo not drawn) [PI(4,5)P2, 1,2-dipalmotoyl-sn-glycero-3-phosphatidylinositol-4,5-trisphosphate], in assay [2], the binding to calcium result is reported as “high affinity; also recorded: strong binding force”.

In the case of `C[C@H](CCC(=O)O)C[C@H](C)C[C@H](C)C(=O)/C=C(\O)[C@H](C)C[C@H](C)C/C=C/[C@@H](C)[C@@H](O)[C@@H](C)[C@@H](O)C[C@@H]1CC[C@@](C)([C@H]2CC[C@@](C)([C@@H](C)O)O2)O1` [ionomycin], the “phosphorylation of Akt protein” value in assay [3] is reported as “significantly inhibited”.

`CCCCCCCCCCCCCCCC(=O)OCC(COP(=O)(O)OC1C(O)C(O)C(OP(=O)(O)O)C(OP(=O)(O)O)C1O)OC(=O)CCCCCCCCCCCCCCC` (stereo not drawn) [PI(3,4)P2, 1,2-dipalmotoyl-sn-glycero-3-phosphatidylinositol-3,4-triphosphate]: the binding to calcium result in assay [2] is “high affinity; also recorded: strong binding force”.

As for `CCCCCCCCCCCCCC(=O)O[C@@H]1[C@@H](C)[C@@]2(O)[C@@H](C=C(CO)C[C@]3(O)C(=O)C(C)=C[C@@H]23)[C@@H]2C(C)(C)[C@]12OC(C)=O` [PMA, phorbol myristate acetate], in assay [3], the “phosphorylation of Akt protein” value is on record as “significantly inhibited”.

Take `CCCCCCCCCCCCCCCC(=O)OCC(COP(=O)(O)OC1C(O)C(OP(=O)(O)O)C(OP(=O)(O)O)C(OP(=O)(O)O)C1O)OC(=O)CCCCCCCCCCCCCCC` (stereo not drawn) [PI(3,4,5)P3, 1,2-dipalmotoyl-sn-glycero-3-phosphatidylinositol-3,4,5-trisphosphate]: the binding to calcium entry in assay [2] was “high affinity; also recorded: strong binding force”.

B1: PH domain of Akt protein: PH domain of Akt1 protein (SEQ. ID. NO: 13) (protein)
chain: MSDVAIVKEGWLHKRGEYIKTWRPRYFLLKNDGTFIGYKERPQDVDQREAPLNNFSVAQCQLMKTERPRPNTFIIRCLQWTTVIERTFHVETPEEREEWTTAIQTVADGLKKQEEEEMDFRSGSPSDNSGAEEMEVSLAKPKHR
modifications: PH domain of Akt protein
Take B1: the “binding to PI(3,4)P2 or PI(3,4,5)P3” value in assay [4] is “bound”. Moreover, the “migration to the cell membrane” value was “ted to the cell membrane” in assay [5] (addition of insulin 100 nM) and “not observed; also recorded: inhibited” in assay [5] (increased intracellular calcium concentration (PMA 100 nM, ionomycin 10 μM)).

(Values after US11726082B2, “Screening method of drug candidates for treating disease using interaction between calcium and phosphatidylinositol phosphate” (Gachon University of Industry—Academic Cooperation …, priority 2017, dated 2023).)
